Results published in US8575094B2, “Use of type-B lantibiotic-based compounds having antimicrobial activity” (Novacta Biosystems Limited, priority 2007, dated 2013).
Converted amounts (≈) assume the structure as drawn. Read-outs that look alike come from different tables or passages of the source.

How the values were obtained:
[1] = system: C. difficile spores; assay: Sporicidal activity: viable counts of C. difficile spores exposed to antibiotics; type: cell-based; settings: for Viable counts of C. difficile spores: antibiotic at 100 µg/ml
Text: An agent capable of killing, or preventing the successful germination of C. difficile spores would therefore be of considerable interest. To determine the effects of type B lantibiotics on C. difficile spores, suspensions of spores were exposed to antibiotics ([…]) and aliquots were taken at appropriate time points. The spores in each aliquot were filtered off and plated out on to Brazier's agar.

[2] = Stability in Simulated Gastric Fluid (SGF), HPLC; type: in vitro ADME; settings: 37° C.
Text: (§1) The preferred method of dosage for the treatment of C. difficile infections is via the oral route of administration. […] Whilst the oral absorption of peptides and related substances of a molecular weight >1,000 Daltons is generally low, metabolism through peptidase enzymes is generally rapid and indeed forms an essential part of the normal digestion of food. The susceptibility of peptides towards enzymatic digestion in the stomach and intestine can reliably be estimated in vitro by measuring their stability in Simulated Gastric Fluid USP ([…], pepsin in saline, pH 1.2) and Simulated Intestinal Fluid USP (SIF, pancreatin in aqueous potassium dihydrogen phosphate, pH 6.8).
(§2) Nisin and mersacidin were tested for their susceptibility towards enzymatic digestion in the stomach and intestine. The SGF and SIF were based on the standard USP solutions for simulated gastric and simulated intestinal fluids and their activity confirmed against Bovine Serum Albumin (Hilger et al, 2001). The compounds were incubated in SGF or SIF at 37° C. and their concentrations quantified by analytical HPLC (UV detection at 210 nm). The potential degradation of each compound was also monitored qualitatively by measuring in vitro antibacterial activity against Micrococcus luteus.

[3] = Stability in Simulated Intestinal Fluid (SIF), HPLC; type: in vitro ADME; settings: 37° C.
Text: as §1, §2

[4] = system: Micrococcus luteus; assay: In vitro antibacterial activity against Micrococcus luteus during SGF/SIF incubation; type: cell-based; settings: incubation in SGF or SIF at 37° C.
Method: as §2

[5] = system: E. faecium
[6] = system: Bifidobacterium adolescentis NCTC 11814
[7] = system: E. coli
[8] = system: C. difficile strain VPI 10463; type: in vivo; settings: hamster, three times daily at 50 mg/kg/day, 5-day dosing period
Method: The in vivo efficacy of two type B Lantibiotics in the treatment of C. difficile infections was evaluated in the standard animal model for CDAD: clindamycin-induced cecitis in hamster (FIG. 3). Four groups of six animals were dosed orally with approximately 10^7 cells of C. difficile strain VPI 10463 and 24 hours later with a subcutaneous dose of 10 mg/kg clindamycin phosphate.

[9] = system: Bifidobacterium longum NCTC 11818
[10] = system: Clostridium difficile; assay: microbe, parasite or virus in culture; type: cell-based; settings: for MIC: Clostridioides difficile, read-out: Minimal Inhibitory Concentration (MIC)
Text: Compounds I to VII were screened against twelve clinical isolates of Clostridium difficile.
In addition, compounds L to LIII were screened against […] isolates of Clostridium difficile.

[11] = system: Bacteroides fragilis NCTC 9343
[12] = system: Bacteroides thetaiotaomicron NCTC 10582
[13] = system: C. difficile 630; settings: hamster, three times daily at 50 mg/kg/day for 5 days, groups of 6
Method: The in vivo efficacy of compound VII in the treatment of C. difficile infections was evaluated in the clindamycin-induced cecitis model in hamster (FIG. 4). Groups of 6 animals were given a subcutaneous dose of 10 mg/kg clindamycin phosphate. 24 hours later, the animals received oral inocula of ˜10^4 spores of C. difficile 630, prepared by heating overnight BHI culture fluids to 56° C. for 10 min and recovering spores by centrifugation and re-suspension of the pellet in an equal volume of PBS.

[14] = rat, 100 mg/kg oral
Method: Male Sprague-Dawley rats were dosed with compound VII at 100 mg/kg via the oral route. Faeces and urine were collected over a 48 h period in two batches (24 h and 48 h post dose). Blood samples were taken at various time points for the first 24 h.

C=C1NC(=O)[C@@H]2NC(=O)[C@H](CC(C)C)NC(=O)[C@H](NC(=O)[C@@H]3CS[C@@H](C)[C@@H](NC(=O)[C@H](Cc4ccccc4)NC(=O)[C@@H]4NC(=O)[C@@H](N)CS[C@H]4C)C(=O)N[C@@H](CC(C)C)C(=O)N4CCC[C@H]4C(=O)NCC(=O)NCC(=O)NCC(=O)NCC(=O)N[C@@H](C(C)C)C(=O)N3)[C@H](C)SC[C@H](NC(=O)[C@H](CCC(=O)O)NC1=O)C(=O)N[C@@H]([C@@H](C)CC)C(=O)N/C=C\S[C@H]2C [Compound I, Mersacidin]
Effect on C. difficile spore viability / germination [1]: inactivate or prevent C. difficile spores from germinating
Viable counts of C. difficile spores ([1]; time 0 h): 177
Viable counts of C. difficile spores ([1]; time 4 h): 0
Viable counts of C. difficile spores ([1]; time 8 h): 0
Viable counts of C. difficile spores ([1]; time 24 h): 0
Stability (degradation) in Simulated Gastric Fluid [2]: None of the compounds showed appreciable degradation
Stability (degradation) in Simulated Intestinal Fluid [3]: essentially stable
In vitro activity against M. luteus during the course of the experiment [4]: remained unaltered

C=C1NC(=O)[C@@H]2NC(=O)[C@H](CC(C)C)NC(=O)[C@H](NC(=O)[C@@H]3CS[C@@H](C)[C@@H](NC(=O)[C@H](Cc4c[nH]c5ccccc45)NC(=O)[C@@H]4NC(=O)[C@@H](N)CS[C@H]4C)C(=O)N[C@@H](CC(C)C)C(=O)N4CCC[C@H]4C(=O)NCC(=O)NCC(=O)NCC(=O)NCC(=O)N[C@@H](C(C)C)C(=O)N3)[C@H](C)SC[C@H](NC(=O)[C@H](CCC(=O)O)NC1=O)C(=O)N[C@@H](C(C)CC)C(=O)N/C=C\S[C@H]2C (stereo partly shown) [Compound IV, F3W Mersacidin]
Minimal Inhibitory Concentration (MIC) [5]: 32 µg/mL
Minimal Inhibitory Concentration (MIC) [6]: 32 µg/mL
Minimal Inhibitory Concentration (MIC) [7]: >64 µg/mL
Survival of infected animals [8]: survived for the duration of the entire 5-day dosing period
Minimal Inhibitory Concentration (MIC) [9]: 16 µg/mL
Minimal Inhibitory Concentration (MIC) [10]: 2 µg/mL
Minimal Inhibitory Concentration (MIC) [11]: 32 µg/mL
Minimal Inhibitory Concentration (MIC) [12]: 16 µg/mL

CC[C@H](C)[C@@H]1NC(=O)[C@H](C(C)C)NC(=O)[C@@H]2NC(=O)CNC(=O)[C@@H]3CS[C@@H](C)[C@@H](NC(=O)[C@@H]4CSC[C@@H](N)C(=O)N[C@@H](CO)C(=O)NCC(=O)N[C@@H](Cc5c[nH]c6ccccc56)C(=O)N[C@@H](C(C)C)C(=O)N4)C(=O)N[C@@H](CC(C)C)C(=O)N[C@@H](C(=O)N[C@@H]([C@@H](C)CC)C(=O)N[C@@H](CCC(=O)O)C(=O)N3)[C@H](C)SC[C@H](NC1=O)C(=O)N[C@@H](C)C(=O)N[C@H](C(=O)NCCO)C[S+]([O-])[C@H]2C (stereo partly shown) [Compound VI, Actagardine N-[2-ethanolamine] monocarboxamide]
Survival of infected animals [8]: survived for the duration of the entire 5-day dosing period
Stability (degradation) in Simulated Gastric Fluid [2]: None of the compounds showed appreciable degradation
Stability (degradation) in Simulated Intestinal Fluid [3]: essentially stable

CC[C@H](C)[C@@H]1NC(=O)[C@@H]2NC(=O)[C@H](CC(C)C)NC(=O)[C@H](NC(=O)[C@@H]3CSC[C@@H](N)C(=O)N[C@@H](CO)C(=O)NCC(=O)N[C@@H](Cc4c[nH]c5ccccc45)C(=O)N[C@@H](C(C)C)C(=O)N3)[C@H](C)SC[C@H](NC(=O)[C@H](CCC(=O)O)NC1=O)C(=O)NCC(=O)N[C@H]1C(=O)N[C@@H](CC(C)C)C(=O)N[C@@H](C(C)C)C(=O)N[C@@H](CS[C@H]2C)C(=O)N[C@@H](C)C(=O)N[C@H](C(=O)NCCO)CS[C@H]1C [Compound VII, Deoxy-actagardine B N-[2-ethanolamine] monocarboxamide]
Survival of infected animals [13]: all 6 of the infected mice survived
Stability (degradation) in Simulated Gastric Fluid [2]: None of the compounds showed appreciable degradation
Material recovered from plasma [14]: No material was recovered
Material recovered from urine ([14]; urine collected over 48 h): No material was recovered

Cc1ncc([N+](=O)[O-])n1CCO [Metronidazole]
Effect on C. difficile spore viability / germination [1]: no significant effect on spore viability
Viable counts of C. difficile spores ([1]; time 0 h): 177
Viable counts of C. difficile spores ([1]; time 4 h): 154
Viable counts of C. difficile spores ([1]; time 8 h): 144
Viable counts of C. difficile spores ([1]; time 24 h): 120
MIC ([10]; C. difficile strain 027C): 0.25 µg/mL (≈ 1.46 µM)
MIC ([10]; C. difficile strain 27SM): 0.125 µg/mL (≈ 0.73 µM)
MIC ([10]; C. difficile strain 19126): 0.25 µg/mL (≈ 1.46 µM)
MIC ([10]; C. difficile strain 37779): 0.125 µg/mL (≈ 0.73 µM)
MIC ([10]; C. difficile strain B32): 0.125 µg/mL (≈ 0.73 µM)
MIC ([10]; C. difficile strain E4): 0.25 µg/mL (≈ 1.46 µM)
MIC ([10]; C. difficile strain E16): 8 µg/mL (≈ 46.7 µM)
MIC ([10]; C. difficile strain E101): 0.125 µg/mL (≈ 0.73 µM)
MIC ([10]; C. difficile strain P24): 0.25 µg/mL (≈ 1.46 µM)
MIC ([10]; C. difficile strain P49): 0.125 µg/mL (≈ 0.73 µM)
MIC ([10]; C. difficile strain P59): 0.25 µg/mL (≈ 1.46 µM)
MIC ([10]; C. difficile strain P62): 0.25 µg/mL (≈ 1.46 µM)
